We go through one molecule from article PMC2955292 (Chemistry & biology, 2010).

Where “and” joins values, the source holds several entries; their conditions need not be identical. Identical values can stand only once. Entries after “also recorded” stand apart in the source; their conditions may differ. Positions of bridges follow the written chain, without caps; N, C: chain ends. Non-standard residues stand in square brackets, D forms with d. Residues, ends and D or L forms follow the SMILES beside them. *: point of attachment. Octatrienoyl(2E,4E,6E) = C/C=C/C=C/C=C/C(=O)*; Pro(4R-Me) = C[C@H]1CN[C@H](C(=O)O)C1; NMeA = CN[C@@H](C)C(=O)O

Experiment [1] addresses T1, E. coli ClpP (Escherichia coli, UniProt P0A6G7). To be noted: Figure S1A, SDS-PAGE.
Experiment [2] deals with T1, E. coli ClpP. In words: Crystal structure of ClpP-ADEP1 complex. It counts as binding.
In experiment [3] the target is T1, E. coli ClpP. In words: biochemical.
Experiment [4] deals with ClpPin. In words: Negative stain EM, translocation of β-casein into ClpPin. It counts as biochemical, Escherichia coli.
A further experiment has as its system ClpP N-terminal loop. In words: Limited proteolysis of ClpP with Staphylococcus aureus protease V8. The class given is biochemical, Escherichia coli. To be noted: presence vs absence of ADEP1; cleavage at Glu8 and Glu14; Figure S6.
In the next experiment the test system is ClpP tetradecamer. In words: Sedimentation velocity, oligomeric state of ClpP. Details: species or system Escherichia coli.
Experiment [5] concerns the target T1, E. coli ClpP. Nature of the experiment: Peptidase assay, oxidized insulin B chain. It counts as biochemical. To be noted: 30-residue peptide; pH 8.0, 0.1 M KCl, 37 °C; Supplemental Table 1.
The subject of a further experiment is ClpP. Conditions: in the presence of ADEP1; ref Brotz-Oesterhelt et al., 2005; cited from earlier work.
Experiment [6] relates to interaction between ClpP and ClpA. Nature of the experiment: ClpP-ClpA interaction. It counts as binding, Escherichia coli. To be noted: Figure S2.
The test system of experiment [7] is ClpPin. Nature of the experiment: Negative stain EM, translocation of EGFP-SsrA into ClpPin. The class given is biochemical, Escherichia coli. Conditions: ADEP1 vs no compound, Figure S3B.
Experiment [8] addresses T1, E. coli ClpP.

T1 sequence (P0A6G7 15-207): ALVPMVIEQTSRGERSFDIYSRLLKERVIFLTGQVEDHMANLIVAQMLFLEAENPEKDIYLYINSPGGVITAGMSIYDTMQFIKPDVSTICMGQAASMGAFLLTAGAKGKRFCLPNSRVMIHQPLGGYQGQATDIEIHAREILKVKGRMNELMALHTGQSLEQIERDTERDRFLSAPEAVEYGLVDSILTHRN

As for `C/C=C/C=C/C=C/C(=O)N[C@@H](Cc1ccccc1)C(=O)N[C@H]1COC(=O)[C@@H]2C[C@@H](C)CN2C(=O)[C@H](C)NC(=O)[C@H](C)N(C)C(=O)[C@@H]2CCCN2C1=O` [ADEP1] ({Octatrienoyl(2E,4E,6E)}-FSP[NMeA]A[Pro(4R-Me)]; ester 2-C; N-terminus assumed), at E. coli ClpP [1] (37 °C), the “degradation of β-casein compared with ClpA and ATP” value is “comparable to that observed when ClpA and ATP were present”. At E. coli ClpP [1], the “pattern of β-casein degradation products (processivity)” value is given as “generated numerous partially degraded products”. Moreover, on E. coli ClpP [2], the “conformation of N-terminal loops on ADEP1 binding” value was “locks the N-terminal loops in an open β-hairpin conformation”, the “rigid-body movement of ClpP monomer on ADEP1 binding” value is recorded as 1.5-2 Å and the “widening of interface between adjacent ClpP monomers” value was “about 1 Å”. Besides, the “axial pore diameter of ClpP bound to ADEP1” value on E. coli ClpP [2] (1.9 Å, PDB 3MT6, apo 12 Å or less) is ~ 20 Å and 20 Å. Also, the “binding site and contacts of ADEP1 on ClpP” value at E. coli ClpP [2] (Figure 5B) is “binds in the hydrophobic groove that serves as the primary docking site for ClpP ATPases; also recorded: binds to a hydrophobic pocket on the outer edge of the apical surface of ClpP; also recorded: Tyr62 forms hydrogen bonds with both the phenylalanine and the alanine moieties of the compound; also recorded: the phenylalanine, β-methylproline and alanine moieties, as well as the aliphatic tail in ADEP1 are critical for binding, while the N-methylalanine and proline moieties have minimal interactions with the protein”. On E. coli ClpP [2] (heptameric ring), the “stoichiometry of ADEP1 binding” value is “one molecule of ADEP1 to each one of the seven hydrophobic clefts in the heptameric ring”. Besides, on E. coli ClpP [3], the EC50 amounted to 370 nM. In the experiment on ClpPin [4] (ADEP1 alone, absence of β-casein, data not shown), the “stain penetration into ClpPin without β-casein” value is recorded as “did not prevent stain penetration into the ClpPin chamber”. For the same molecule, the “shift of particle intensity distribution, β-casein translocation” value with ClpPin [4] (ClpPin, ADEP1 vs no compound, Figure S3A) is given as “significant shift of particles to higher intensity values”. Also, the “limited proteolysis of ClpP by V8 protease” value in the experiment on ClpP N-terminal loop was “significantly slower”. Also, the “effect on ClpP tetradecamer formation” value with ClpP tetradecamer is on record as “enhances rather than disrupts tetradecamer formation”. In addition, the “cleavage of oxidized insulin β chain” value on E. coli ClpP [5] was “activated cleavage”. Besides, in the experiment on ClpP, the “degradation of EGFP-SsrA by ClpP” value is on record as “not degraded”. In addition, the “interaction between ClpP and ClpA” value in [6] was “blocked interaction between ClpP and ClpA”. In the experiment on ClpPin [7], the “shift of particle intensity distribution, EGFP-SsrA” value is “no significant differences”. Further, the “activation of F-V cleavage compared with ClpA” value at E. coli ClpP [8] (F-V 1 mM, ClpP 1 μg/ml, 10 μM ADEP1 vs ClpA 10 μg/ml with 1 mM ATPγS, 37 °C, pH 8.0) is on record as “comparable to the allosteric activation seen with ClpA”. In addition, on E. coli ClpP [8] (F-V cleavage, 10 μM ADEP1, average of two separate experiments), the “activity of ClpP alone relative to activity with ADEP1 present” value is ~ 2%.
